#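 48-hour exposure; five concentrations; linearly interpolated endpoints. Abbreviation: GI50, concentration required for 50% inhibition of growth. Definition used: TGI = concentration required for complete inhibition of growth.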
# Experiments:
# Assay in all cases: growth of human tumour cells (NCI), 48 h
# [1] = system: NCI-H23 lung
# [2] = system: SK-MEL-5 melanoma
# [3] = system: CAKI-1 renal
# [4] = system: MALME-3M melanoma
# [5] = system: SK-MEL-28 melanoma
# [6] = system: SNB-75 CNS
# [7] = system: NCI-H460 lung
# [8] = system: SR leukemia
# [9] = system: HS 578T breast
# [10] = system: T-47D breast
SMILES,TGI [1] [µM],TGI [2] [µM],TGI [3] [µM],TGI [4] [µM],TGI [5] [µM],TGI [6] [µM],TGI [7] [µM],TGI [8] [µM],TGI [9] [µM],GI50 [1],GI50 [2],GI50 [3] [µM],GI50 [4],GI50 [5],GI50 [6],GI50 [10] [µM],TGI [10] [µM],GI50 [8] [µM],GI50 [9],GI50 [7] [µM]
O=c1[nH]cnc2c1ncn2CCCCO,> 100,> 100,> 100,> 100,> 100,> 100,> 100,> 100,,,,,,,,,,,,
COc1ccc(OC)c(/C=N/N=C2\C(=O)Nc3c(Cl)cc(Cl)cc32)c1,> 100,> 100,> 100,> 100,> 100,19.7,> 100,> 100,83.5,,,,,,,,,,,
CC1=C(C(=O)Nc2ccccc2C)C(c2ccccc2C)C(C(=O)Nc2ccccc2C)=C(C)N1,68.4,,,38.2,42.5,59.2,53.9,65.4,,,,,,,,,,,,
COc1cc2c(cc1OCCCCCn1c3ccccc3c3ccccc31)N=C[C@@H]1CCCN1C2=O,7.04,3.15,4.58,4.72,3.5,2.58,,> 100,,2.69 µM,1.73 µM,1.93,2.2 µM,1.8 µM,1.05 µM,2.79,9.24,15.4,,
Cc1cn(Cc2ccccc2CCl)c(=O)n(Cc2ccccc2CCl)c1=O,5.43,2.93,3.3,4.02,5.49,3.79,4.67,3.25,15.1,2.19 µM,1.56 µM,1.86,2.03 µM,2.21 µM,1.81 µM,,,0.661,2.65 µM,1.98
COc1ccc(C=C2C(=O)NC(=O)NC2=O)cc1OCc1ccccc1,,,,,,,,,,31.7 µg/mL,49 µg/mL,,54.5 µg/mL,65.7 µg/mL,22.9 µg/mL,,,,27.1 µg/mL,
NS(=O)(=O)c1ccc(NC(=O)c2cccc3c(Nc4ccc(S(N)(=O)=O)cc4)c4ccccc4nc23)cc1,> 100,> 100,> 100,> 100,> 100,> 100,> 100,,,,,,,,,,,,,
CC1CC(=O)c2c(ccc3c2C(=O)c2cccc(O)c2C3=O)C1 (configuration not stated),27.1,8.48,,19.8,26.6,22.9,19.5,35.9,,,,,,,,,,,,

# From PubChem BioAssay (NCI)
